Experimental data: a melting point compilation (Tetko et al.; mined from patent text by program, amines drawn as free bases though some values may be those of a salt)

Point of comparison: `Cc1oncc1-c1ccc(OC2SCC(O)C(O)C2O)cn1` (centres undefined), melting point 184 °C. Against it:
- C/C(=C\c1ccc(OCCN(C)C)cc1)c1ccc2c(c1)C(C)(C)CCS2 — lower, 81 to 82 °C
- COc1ccc(-c2nc(C(=O)O)c[nH]2)cc1OC1CCCC1 — higher, 206 to 208 °C
- Cc1nc2c(N)nc3ccccc3c2n1CCCNC(=O)C(C)C — higher, 239 to 240 °C
- Cc1noc(NS(=O)(=O)c2ccccc2-c2ccc(-c3ncco3)cc2CC#N)c1C — lower, 103 to 110 °C
- CC(C)(C)c1cc2c(c(C(C)(C)C)c1)O[Si](c1ccccc1)(c1ccccc1)Oc1c(cc(C(C)(C)C)cc1C(C)(C)C)S2 — higher, 202 to 205 °C
- O=C(CCl)c1ccc2c(c1)[C@H](NC(=O)C(F)(F)F)CC2 — lower, 166 to 167 °C
- CC(=O)NCCN1CCc2cc(NC(=O)c3ccccc3-c3ccc(C(F)(F)F)cc3)ccc2C1 — lower, 163 °C
- CSc1noc(C2CC2)c1C(=O)c1ccc(C(F)(F)F)nc1C — lower, 103 to 104 °C
- Nc1c(-c2ccc(Cl)cc2)nc2c(Cl)cc(Cl)cc2c1C(=O)O — higher, 260 to 261 °C
- Nc1nc(C2CCN(C(=O)Cc3ccc(O)c(O)c3)CC2)c2ccccc2n1 — higher, 250 to 253 °C
- COC(=O)c1nc(CCl)n(-c2ccc(Cl)cc2C(=O)c2ccccc2)n1 — lower, 132 to 134 °C
- COc1ccc(C2(Cn3ccn(Cc4ccccc4)c3=O)CC2)cc1OC — lower, 110 °C
- N#Cc1ccc(-c2ccc(-c3cn4cc(C#N)ccc4n3)o2)cc1 — higher, 298 to 300 °C
- CN(C)CCOc1ccc(Nc2nccc(-c3cccnc3)n2)cc1 — lower, 108 to 110 °C
- O=C1CC(c2ccc(F)cc2)c2ccc(F)cc21 (centres undefined) — lower, 70 to 73 °C
- CN(C=O)c1cc(F)ccc1C(=O)COC(=O)c1ccccc1 — lower, 93 to 95 °C
- COC(=O)C(c1ccc(O)cc1)N1CC(NC(=O)Cc2ccccc2)C1=O (centres undefined) — lower, 172 to 175 °C
- O[C@@H]1CCC[C@H]1Nc1ccc(Cl)c(Cl)c1 (relative stereo) — lower, 167 to 168 °C
- CCc1cccc(NC(=O)C(C)(C)C)n1 — lower, 59 to 62 °C
- CC(=O)NC[C@H]1CN(c2cc(F)c(N3CCC(n4nnnc4CS(C)(=O)=O)CC3)c(F)c2)C(=O)O1 — higher, 192 °C
- Oc1ccc(C(c2ccc(O)cc2)c2ccccc2CN2CCCc3ccccc32)cc1 — lower, 160 to 163 °C
- Cn1cc(C2=C(c3c4n(c5ccccc35)CCN(C(=O)CNC(=O)C(F)(F)F)C4)C(=O)NC2=O)c2ccccc21 — lower, 170 to 172 °C
- CN1CCC(c2c[nH]c3ccc(N)cc23)C(F)C1 (centres undefined) — lower, 105 to 107 °C
- CC(=O)NNC(COCc1cc(C)cc(C)c1)C1c2ccccc2C=Cc2ccccc21 (centres undefined) — lower, 115 to 117 °C
- CCOC(=O)C(Cc1ccc(O)cc1)C(=O)OCC — lower, 45 °C
- COc1cc2c(cc1C=O)OCC2 — lower, 82 to 84 °C
- O=[N+]([O-])c1cccc(-n2cccn2)c1 — lower, 85 to 87 °C
- COc1cc2cc(CC(C)(C(N)=O)c3ccc(C#N)cc3)sc2cc1OC (centres undefined) — lower, 178 to 180 °C
- Cc1oc(-c2ccccc2)nc1Cc1cc2cc(N)ccc2o1 — lower, 162 °C
- CC1CN(c2ccncc2Oc2ccccc2)CCN1 (centres undefined) — lower, 55 to 57 °C
- Nc1cc(Oc2ccc(NC(=O)Nc3ccc(-c4cccnc4)c(C(F)(F)F)c3)cc2)ncn1 — lower, 132 to 135 °C
- O=C(CNc1ccc2[nH]c(=O)[nH]c2c1)N1CCC(Oc2ccc(Cl)cc2)CC1 — higher, 201 to 205 °C
- CCOc1ncccc1OCC1(c2onc(-c3ccc(O)cc3)c2-c2ccccc2)CC1 — higher, 190 to 192 °C
- Cn1nc(-c2cnc3[nH]cc(C(=O)NC4CCOC4)c3n2)c2ccc(Cl)cc21 (centres undefined) — higher, 345 to 347 °C
- CC(=O)C=Cc1ccc(Cl)c(Cl)c1 — lower, 53 to 55 °C
- CCCCCCCCCOc1ccc(-c2ccc(OCC(C)CC)nn2)cc1 (centres undefined) — lower, 87 °C
- CCCc1c(OCCCOc2ccc(-c3coc(C)n3)c(OC)c2CCC)ccc2c1OC(C(=O)O)CC2 (centres undefined) — lower, 111 to 115 °C
- CCOC(=O)CNc1cc(C(F)(F)F)ccc1C#N — lower, 98 to 101 °C
- NS(=O)(=O)c1ccc(-n2nc(C(F)(F)F)cc2-c2ccc(-c3cscn3)cc2)cc1F — lower, 168 to 170 °C
- CC(C)N(C[C@@H]1CCC[C@H](CN(C(=O)Nc2ccc(N(C)C)cc2)C(C)C)C1)C(=O)Nc1ccc(N(C)C)cc1 — lower, 139 to 141 °C
- N#CC(=O)c1ccccc1Br — lower, 64 °C
- O=C1CNc2ncc(I)cc2N1Cc1ccc(C(F)(F)F)o1 — higher, 189 to 191 °C
- O=c1c2ccccc2sc(-c2ccncc2)[n+]1[O-] — higher, 248 to 252 °C
- N#Cc1ccc(-c2ccc(O)c(C=O)c2)cc1 — lower, 144 °C
- N#CCN1C(=O)N(c2ccc(C#N)c(C(F)(F)F)c2)C(=O)C12CCOCC2 — higher, 210 to 211 °C
- CC(=O)NC1CCC(=O)C(=CN(C)C)C1 (centres undefined) — lower, 132 to 133 °C
- CCOC(=O)c1cnn2c1nc(OCCC(C)C)c1cnc3c(cnn3CC)c12 — lower, 117 to 118 °C
- CC(=O)C1C(Cl)CC2C3CCC4CC(O)CCC4(C)C3C(=O)CC21C (centres undefined) — higher, 226 to 227 °C
- NC(=S)c1nccc(F)c1Cn1ccnc1 — lower, 154 to 156 °C
- Nn1cc(Br)c(=O)[nH]c1=O — higher, 214 to 215 °C
- CCCCCC(CC(=O)Nc1cc(C(=O)O)ccc1C(C)(C)C)c1ccc(C(=O)CCC)cc1OC (centres undefined) — lower, 136 to 138 °C
- O=c1c2cccnc2c(-c2cccc(Cl)c2)cn1Cc1ccncc1 — lower, 170 to 172 °C
- COC(=O)COc1cccc2c(CCBr)coc12 — lower, 58 to 59 °C
- CCOCc1nc2c(N)nc3cc(OCCCCCCNS(C)(=O)=O)ccc3c2n1CC(C)(C)NC(=O)NC(C)C — higher, 190 to 194 °C
- CN(CCCNC(=O)CSc1nc2ccc(N(C)C)nc2s1)Cc1ccc(Cl)c(Cl)c1 — lower, 92 to 93 °C
- CCOP(C)(=O)COS(=O)(=O)c1ccccc1C(F)(F)F (centres undefined) — lower, 91 to 92.5 °C
- CCN1C(=O)C(C)(C)C(=O)N(C)c2cc(CN(CCn3ccc4oc(C)cc4c3=O)c3cccc4ncccc34)ccc21 — lower, 166 to 168 °C
- Cn1c(=O)n(C)c2cc(C(=O)CSCCC(=O)O)ccc21 — lower, 174 to 176 °C
- N#CCCNC(=O)C1=CC(CF)(CF)Oc2ccc(Cl)cc21 — lower, 134 to 136 °C
- CC(C)(O)Cn1c(CO)nc2c(N)nc3cc(CCC(=O)N4CCOCC4)ccc3c21 — higher, 223 to 225 °C
- COc1ccc(C(=O)Nc2ccccc2)cc1NC(=S)Nc1cc(Cl)cc(Cl)c1 — higher, 195 to 197 °C
- O=C(Nc1cccc(Cl)c1)N[C@H]1C[C@H](C(=O)O)Nc2cc(Cl)cc(Cl)c21 (relative stereo) — lower, 173 to 175 °C
- N#Cc1ccccc1-c1ccc(CN=[N+]=[N-])cc1 — lower, 69 to 70 °C
- O=C(O)c1cccc(OC(F)(F)C(F)(F)F)c1 — lower, 131 to 134 °C
- COc1cc(C(=O)CCCN2CCC(OC(=O)c3cc(Cl)c(N)c4c3OCCC4)CC2)cc(OC)c1OC — lower, 113 °C
- CN=C1C2=C(C=CC1CN(C)c1ccc(C(=O)OC)cc1)C(C)(C)CCC2(C)C (centres undefined) — higher, 275 to 280 °C
- Cc1cc(N2CCC(CN3CCN(S(=O)(=O)c4ccc(Cl)cc4)CC3)CC2)nc(C)n1 — lower, 73 to 74 °C
- COCCCn1nnnc1-c1cc(-c2ccc(C(F)(F)F)cc2)c(O)cc1O — lower, 98 to 104 °C
- NC(=O)CNC(=O)c1cccc(-c2ccc(F)c3cc(Cc4ccc(F)c(F)c4)sc23)c1 — lower, 161 to 162 °C
- C#CCS(=O)c1c(O)cc(C)oc1=O (centres undefined) — lower, 134 °C
- CC(C)Oc1cc(NNC(=N)C(F)(F)F)c(Cl)cc1Cl — lower, 80.5 to 81 °C
- COc1ccc(C(C#Cc2ccccc2)Cc2noc(C)n2)cc1OC1CCCC1 (racemic) — lower, 86 to 90 °C
- CC(C)n1c2c(c3cccc(F)c31)C(=O)NCC2 — not separable, 183 to 184 °C
- CC=NN(C)C1=NOCc2ccc(Cl)cc21 — lower, 111 to 112 °C
- CC1=NCN(c2cc(Br)cs2)O1 — lower, 66 to 67 °C
- Cc1cn(C2CCCCC2)c(=O)nc1NS(=O)(=O)c1ccc(N)cc1 — higher, 203 to 206 °C
- c1ccc(COc2ccc(-c3nc(COc4ccc(CCCCn5ccnc5)cc4)co3)cc2)cc1 — lower, 118 to 120 °C
- CC(C)(C)c1cc(SC2CC(=O)OC2=O)cc(C(C)(C)C)c1O (centres undefined) — lower, 92 to 93 °C
- CC(C)(C)c1ccc(C(=O)Nc2cn3nc(-n4cnc(CO)c4)ccc3n2)cc1 — higher, 298 to 301 °C
- CC1(C)CCC(C)(C)c2cc(C(N)C(=O)Nc3ccc(C(=O)O)c(O)c3)ccc21 (centres undefined) — higher, 240 to 241 °C
- CCn1c(=O)c(C#N)c(N)c2ccc(C)nc21 — higher, > 300 °C
- O=C(O)CC(NC(=O)c1ccc2c(c1)CCC(=NNC1=NCCN1)C1=C2CCC1)c1cccnc1 (centres undefined) — lower, 126 to 128 °C
- COc1ccc2c(ccc3c4ccc(OC)cc4c(=O)n(-c4ccc(OCCN5CCCCC5)cc4)c23)c1 — lower, 176 °C
- C=CCc1ccc(OCc2ccc(OC)cc2)cc1 — lower, 59 to 61 °C
- COC(=O)c1ccccc1Oc1ccc(C)cc1[N+](=O)[O-] — lower, 71 to 73 °C
- O=C(Cc1ccc(I)cc1)NC[C@H]1CCCN1CCF — lower, 96 °C
- Cc1cc(CO)nc(Nc2ccccc2)n1 — lower, 118 to 120 °C
- Cc1oc(-c2ccccc2)nc1COc1ccc(Cn2cc(CC(=O)O)c(-c3cccs3)n2)cc1 — lower, 98 to 99 °C
- O=c1c(-c2ccccc2)cc(C2=NCCO2)c2n1CCc1ccsc1-2 — higher, 211 to 212 °C
- N#Cc1ccc(O)cn1 — higher, 191 to 194 °C
- COC1OC(COCc2ccccc2)C(OCc2ccccc2)C(NC(C)=O)C1OCc1ccccc1 (centres undefined) — lower, 147 to 151 °C
- CC(=O)Oc1ccc(-n2c(-c3ccccc3)cc3ccccc32)cc1C(=O)O — lower, 178 to 180 °C
- CCC1Cc2cc(C(C)C(=O)O)ccc2O1 (centres undefined) — lower, 70 to 72 °C
- Cc1cccc2nnc(-c3ccccc3)c(Cl)c12 — lower, 128 °C
- CC1=NN(C)C(=O)C1=Cc1ccc(Cl)cc1Cl — lower, 128 °C
- CCCn1c(=O)c2[nH]c(-c3cc(C)n(CC(=O)Nc4ccccc4)n3)nc2n(CCC)c1=O — higher, 255 to 257 °C
- COC(=O)/C(C)=C1\CN2C(=O)CC2O1 (centres undefined) — lower, 90 to 91 °C
- CC(Cl)(Cl)C(NC(=O)c1cccc(Cl)c1)NC(=NC#N)Nc1cccc(F)c1 (centres undefined) — lower, 179 to 181 °C
